Assay results from US9072729B2, “Method for treating fibrosis and cancer with imidazolium and imidazolinium compounds” (Agency for Science, Technology and Research, priority 2008, dated 2015).

Tests used:
MCF-7 = test: Proliferation assay (MTS), breast cancer cell line; assay type: cell-based; details: Homo sapiens, MCF7, 72 h; MCF-7 (breast cancer), determined at day 3
Method: Proliferation of Glioma cell lines: U87 MG and C6 under the treatment of DBZIM was examined using 3-(4,5-dimethylthiazol-2-yl)-5-(3-carboxymethoxyphenyl)-2-(4-sulfophenyl)-2H-tetrazolium (MTS) based proliferation assay kit (Promega, Wis., USA). MTS reagent was added to the control and treated cells (after 48 hr) directly and the absorbance signal was read at 490 nm using a Tecan Safire II plate reader.
(§1) The IC50 value (determined at day 3) was 50 μM for H1299 (lung cancer); 50 μM for MCF-7 (breast cancer), and 40 μM for AGS gastric cancer at day 3 (Table 3).

[1] = system: Bcl-2 and IAP protein expression in HepG2 cells; test: Western blot of Bcl-2 and IAP family proteins; assay type: cell-based, human; details: HepG2, 0-2.0 mM, 24 hr
Method: FIG. 24. DBZIM affected Bcl-2 and IAP protein expression. HepG2 cells were treated with DBZIM (0, 0.5, 1.0, 1.5 and 2.0 mM) for 24 hr. Total protein was collected using RIPA buffer. 15 μg of total protein was resolved in 4-12% gradient PAGE-SDS gel. The target proteins were recognized by respective antibodies, and visualized by the ECL method. The membrane was stripped and probed for the α-tubulin as the loading control.
Protein extracts were prepared by lysing cell pellet in RIPA buffer (Pierce, Ill., USA) for total protein extract, or in NE-PER reagent from Pierce (Pierce, Ill., USA) for nuclear and cytoplasmic fractions, or in a Kit from BioVision (CA, USA) for mitochondria and cytosol fractions. Protein content was quantified using BCA Kit (Pierce, Ill., USA). Fifteen micrograms of protein were resolved in 4-12% gradient SDS/polyacrylamide gel electrophoresis (PAGE) gel, and transferred to nitrocellular membrane. The membrane was then probed with primary antibodies against Bcl-XL, Bak, Bcl-2α, Bax (Lab Vision Corp., CA, USA), survivin, xIAP, cIAP (R&D systems Inc., MN, USA), c-Jun, c-Fos, JunB, JunD, Fra-1, Fra-2 (Santa Cruz Biotechnology, CA, USA) respectively, and detected by horseradish peroxidase-conjugated secondary antibody (Santa Cruz Biotechnology, CA, USA). Protein bands were recorded on X-ray film by reacting with ECL chemiluminescence reagents (Amersham Biosciences, NJ, USA). Alpha-tubulin (Abeam, UK) was used as the loading control for total protein, Tata binding protein (TBP) (Abeam, UK) was used as the loading control for nuclear protein, and Cox4 (Abcam, UK) was used as loading control for mitochondria protein.

IMR90 = test: Cytotoxicity on normal (non-cancerous) lung cells; assay type: cell-based
Method: as §1

Huh7 cells = test: HCC xenograft model (Huh7 cells in Balb/c nude mice); assay type: in vivo, mouse; details: 2 grams/liter in drinking water, 3 weeks
Method: (§2) Balb/c Nude mice, 5-6 weeks old, were inoculated with 1×10^7 Huh7 cells in 0.2 ml volume of Matrigel/DMEM mix. Since not every mouse developed a tumor after the inoculation of HCC cells, only those with visible tumors (about 8 weeks after inoculation) were used for subsequent experiment. The tumor-bearing mice were randomly divided to the control and the treatment group. (n=3), respectively. Mice in the treatment group had free access to drinking water containing DBZIM (2 grams/liter) only, while mice in the control group had free access to Water only. The compound treatment lasted for 3 weeks. The tumor size was measured weekly, and the tumor volume was calculated using the formula: 0.52×width^2×length.
as §2, with “group” for “group.”, “compound 9 (IBN-9) at 0.6 g/l or 1.5 g/l” for “DBZIM (2 grams/liter)”, “water” for “Water”

HepG2 cells = test: Cell based caspase 3/7 and LDH assays, HepG2; set-up: species or system human; details: HepG2, 6 hr
Method: FIG. 22. […] HLE or HepG2 cells were incubated with DBZIM of various concentrations for 6 hr, and assayed for caspase 3/7 activity and LDH releasing (expressed as % toxicity). DBZIM induced apoptosis as characterized by annexin V staining using flow cytometer in HLE (E) and HepG2 (F). Scatter plot and histogram gave the representative information on the cell population distribution while bar graphs quantified the percentage of apoptotic cells from the histogram. HLE and HepG2 cells were treated by DBZIM of various concentrations for 24 hr before harvesting for annexin V staining and flow cytometric analysis.
(§3) Capspase 3/7 activity and lactate dehydrogenase (LDH) release were measured by Fluorometric assays (Promega Corp., WI, USA). The HCC cells were cultured in 96-well plate and treated with DBZIM of various concentrations for 6 hr before assays. For caspase 3/7 assay, medium was removed and substrate buffer was added to lyse the cell and react with caspase 3/7 to give rise to fluorescence signal which was read at Ex=485 nm and Em=530 nm on a Tecan Safire II plate reader after 1 hr incubation. The caspase 3/7 activity of sample cells with the compound treatment was expressed as relative fold change after normalizing to the control cells. The LDH assay (indicative of membrane integrity) was performed using a Kit from Promega Corp according to manufactor's instructions.

C6 = test: Caspase 3/7 activity in C6; assay type: cell-based, rat; details: C6, 2.0 mM, 6 hr
Method: FIG. 30. DBZIM inhibited cell proliferation in glioma cell line C6 (A) and U87 MG (C) and induced caspase 3/7 activity in C6 (B) and U87 MG (D). C6 or U87 cells were incubated with DBZIM of various concentrations for 48 hr for proliferation assay and 6 hr for caspase 3/7 activation assay. Proliferation was measured using MTS kit from Promega and expressed as relative cell proliferation with control group was normalized to 1. Caspase 3/7 activity was quantified using a kit from Promega and also expressed as relative caspase 3/7 activity of treated groups over control group.
as §3

[Br-].c1ccc(Cn2cc[n+](Cc3ccccc3)c2)cc1 [DBZIM, 1,3-bisbenzylimidazolium bromide]
IC50 (MCF-7): 50 µM
Bak protein [1]: up-regulated
Bcl-2α and Bax proteins [1]: not affected
Bcl-XL protein [1]: slightly down-regulated
survivin protein [1]: significantly suppressed
xIAP and cIAP proteins [1]: not affected
cytotoxicity on normal lung cells (IMR90): much less cytotoxicity
decrease of body weight (Huh7 cells): 17%
reduction of tumor volume (Huh7 cells): 40%
LDH release (HepG2 cells): least affected
caspase 3/7 activity (HepG2 cells): enhanced
elevation of caspase 3/7 (C6): 3 folds
